Patent US4302458A, “Phthalidyl-isoquinoline derivatives” (Laborec Laboratoire de Recherches Biologiques, priority 1979, dated 1981)

Legend:
[1] = Acute toxicity (LD 50), oral route, mice; settings: mouse, in vivo
Experimental: (§1) The toxicity was determined in the conventional manner.

mice = settings: mouse, in vivo
Experimental: as §1

histidine decarboxylase = assay: Histidine decarboxylase activity of guinea-pig kidneys after in vivo administration; settings: for Activity expressed in % inhibition of the enzyme: guinea-pig renal enzyme, sacrificed five hours after administration, vs control animals
Excerpt: The activity of the compound 458 L was compared with that of tritoqualine, which is, to the Applicants' knowledge, the only product used therapeutically for this objective. The technique for measuring the histadine decarboxylase activity of guinea-pig kidneys has been described by B. Kosmicki et al (J. Pharmacol. Paris 1974-5-3-331-342). The guinea-pigs were sacrificed five hours after administering the substances under investigation. The percentage reduction in the activity of the renal enzyme of the treated animals was determined with respect to control animals.

Row | SMILES | LD50 [1] | chronic toxicity (tolerance) (mice) | Activity expressed in % inhibition of the enzyme (histidine decarboxylase; dosage 10 mg/kg) | Activity expressed in % inhibition of the enzyme (histidine decarboxylase; dosage 20 mg/kg) | Activity expressed in % inhibition of the enzyme (histidine decarboxylase; dosage 40 mg/kg) | Activity expressed in % inhibition of the enzyme (histidine decarboxylase; dosage 60 mg/kg) | in vivo inhibition of histidine decarboxylase (in words) (histidine decarboxylase; in vivo)
1 | CCOc1c(N)c2c(c(OCC)c1OCC)C(C1c3c(cc(OC)c(OC)c3OC)CCN1C)OC2=O (centres unmarked) [458 L, 2-methyl-6,7,8-trimethoxy-1[4,5,6-triethoxy-7-amino-3-phthalidyl]-1,2,3,4-tetrahydro-isoquinoline] | ~6000 mg/kg | well tolerated | 14% | 21% | 31% | 41% | inhibiting in vivo the action of the enzyme histidine decarboxylase
2 | CCOc1c(N)c2c(c(OCC)c1OCC)C(C1c3c(cc4c(c3OC)OCO4)CCN1C)OC2=O (centres unmarked) [Tritoqualine, tritoqualine, reference compound] | – | – | 10% | 20% | 20% | 22% | –
